US11053234B2 (GlaxoSmithKline Intellectual Property Development Limited, priority 2016, dated 2021)

Biological target: T1, haematopoietic prostaglandin D synthase (H-PGDS) (Homo sapiens, UniProt O60760)
T1 construct: Full length human H-PGDS cDNA (Invitrogen Ultimate ORF 10H13026) was amplified by PCR; 6-His (N); TEV protease cleavage site (N); made in house; host or cells: E. coli BL21 (DE3*), vector pET22b+
Experiment: H-PGDS RapidFire high throughput mass spectrometry assay (conversion of PGH2 to PGD2)
Assay type: biochemical
Conditions: 10 nM H-PGDS, PGH2 formed in situ by COX-2 from arachidonic acid; read-out: Potency Range (mean pIC50) (converted)
In short: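 PGH2 substrate generated in situ by COX-2 (full-length human, FLAG-tagged, Sf9-expressed) from arachidonic acid at ˜10 μM, then converted by full-length human His-tagged H-PGDS (E. coli-expressed). RapidFire SPE–triple quadrupole MS measured PGD2 against PGF2α as substrate surrogate to give percent conversion.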

T1 sequence (O60760 whole entry): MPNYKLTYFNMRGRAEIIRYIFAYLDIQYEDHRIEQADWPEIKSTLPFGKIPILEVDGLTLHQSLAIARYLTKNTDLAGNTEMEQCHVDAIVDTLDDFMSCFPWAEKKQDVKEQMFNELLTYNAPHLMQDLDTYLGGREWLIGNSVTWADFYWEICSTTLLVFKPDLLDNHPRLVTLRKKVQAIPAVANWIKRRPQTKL

SMILES	IC50
Cc1ccc(N2CC(NC(=O)[C@H]3C[C@H](Oc4cc(F)cc5scnc45)C3)C2)nc1 [Example 231, (trans)-3-((6-Fluorobenzo[d]thiazol-4-yl)oxy)-N-(1-(5-methylpyridin-2-yl)azetidin-3-yl)cyclobutanecarboxamide]	10 to 79.4 nM
COc1ccc(F)cc1O[C@H]1C[C@H](C(=O)Nc2nc(C3CC3)cs2)C1 [Example 167, (trans)-N-(4-Cyclopropylthiazol-2-yl)-3-(5-fluoro-2-methoxyphenoxy)cyclobutanecarboxamide]	< 10 nM
CC(C(F)F)N1CCC(NC(=O)[C@H]2C[C@H](Oc3cc(F)ccc3OC(F)F)C2)CC1 (mixture of isomers) [Example 21, Racemic (trans)-3-(2-(Difluoromethoxy)-5-fluorophenoxy)-N-(1-(1,1-difluoropropan-2-yl)piperidin-4-yl)cyclobutanecarboxamide]	10 to 79.4 nM
O=C(NC1CCN(c2ncc(F)cn2)CC1)[C@H]1C[C@H](Oc2cc(F)cc3scnc23)C1 [Example 117, (trans)-3-((6-Fluorobenzo[d]thiazol-4-yl)oxy)-N-(1-(5-fluoropyrimidin-2-yl)piperidin-4-yl)cyclobutanecarboxamide]	10 to 79.4 nM
CC(C)(O)[C@H]1CC[C@H](NC(=O)N2CC(Oc3cccc4ccoc34)C2)CC1 [Example 260, 3-(Benzofuran-7-yloxy)-N-((trans)-4-(2-hydroxypropan-2-yl)cyclohexyl)azetidine-1-carboxamide]	10 to 79.4 nM
COC(=O)N1CCCC(NC(=O)N2CC(Oc3cccc4scnc34)C2)C1 (racemic) [Example 93, Racemic Methyl 3-(3-(benzo[d]thiazol-4-yloxy)azetidine-1-carboxamido)piperidine-1-carboxylate]	100 to 1000 nM
O=C(NC1CN(c2ncc(CO)cn2)C1)N1CC(Oc2cc(F)cc3scnc23)C1 [Example 113, 3-((6-Fluorobenzo[d]thiazol-4-yl)oxy)-N-(1-(5-(hydroxymethyl)pyrimidin-2-yl)azetidin-3-yl)azetidine-1-carboxamide]	10 to 79.4 nM
CCOC(=O)c1cnc(N2CC(NC(=O)[C@H]3C[C@H](Oc4cccc5scnc45)C3)C2)o1 [Example 48, Ethyl 2-(3-((trans)-3-(benzo[d]thiazol-4-yloxy)cyclobutanecarboxamido)azetidin-1-yl)oxazole-5-carboxylate]	100 to 1000 nM
Cn1nccc1NC(=O)[C@H]1C[C@H](Oc2cccc3scnc23)C1 [Example 249, (trans)-3-(Benzo[d]thiazol-4-yloxy)-N-(1-methyl-1H-pyrazol-5-yl)cyclobutanecarboxamide]	100 to 1000 nM
CC(N[C@H]1CC[C@H](NC(=O)[C@H]2C[C@H](Oc3cccc4cccnc34)C2)CC1)C(F)(F)F (mixture of isomers) [Example 173, Racemic (trans)-3-(Quinolin-8-yloxy)-N-((trans)-4-((1,1,1-trifluoropropan-2-yl)amino)cyclohexyl)cyclobutanecarboxamide]	10 to 79.4 nM
COc1cc(F)ccc1O[C@H]1C[C@H](C(=O)Nc2nc(C(C)=O)cs2)C1 [Example 276, (trans)-N-(4-Acetylthiazol-2-yl)-3-(4-fluoro-2-methoxyphenoxy)cyclobutanecarboxamide]	10 to 79.4 nM
CC(C)(O)[C@@H]1CC[C@@H](NC(=O)[C@H]2C[C@H](Oc3cc(F)cc4scnc34)C2)CO1 (racemic) [Example 139, Racemic (trans)-3-((6-Fluorobenzo[d]thiazol-4-yl)oxy)-N-((trans)-6-(2-hydroxypropan-2-yl)tetrahydro-2H-pyran-3-yl)cyclobutanecarboxamide]	10 to 79.4 nM
COc1ccc(F)cc1O[C@H]1C[C@H](C(=O)N[C@H]2CC[C@H](N3CCOCC3=O)CC2)C1 [Example 151, (trans)-3-(5-Fluoro-2-methoxyphenoxy)-N-((trans)-4-(3-oxomorpholino)cyclohexyl)cyclobutanecarboxamide]	100 to 1000 nM
O=C(Nc1nccs1)[C@H]1C[C@H](Oc2cccc(Cl)c2)C1 [Example 287, (trans)-3-(3-Chlorophenoxy)-N-(thiazol-2-yl)cyclobutanecarboxamide]	10 to 79.4 nM
COc1ccc(F)cc1O[C@H]1C[C@H](C(=O)N[C@H]2CC[C@H](C(C)(C)O)CC2)C1 [Example 168, (trans)-3-(5-Fluoro-2-methoxyphenoxy)-N-((trans)-4-(2-hydroxypropan-2-yl)cyclohexyl)cyclobutanecarboxamide]	10 to 79.4 nM
CC(C)(O)[C@H]1CC[C@H](NC(=O)[C@H]2C[C@H](Oc3cc(F)ccc3OC(F)F)C2)CC1 [Example 34, (trans)-3-(2-(Difluoromethoxy)-5-fluorophenoxy)-N-((trans)-4-(2-hydroxypropan-2-yl)cyclohexyl)cyclobutanecarboxamide]	10 to 79.4 nM
CC(O)[C@H]1CC[C@H](NC(=O)[C@H]2C[C@H](Oc3cc(F)ccc3OC(F)F)C2)CC1 (mixture of isomers) [Example 26]	10 to 79.4 nM

SMILES	IC50
CN1CCN([C@H]2CC[C@H](NC(=O)N3CC(Oc4cccc5scnc45)C3)CC2)C1=O [Example 102, 3-(Benzo[d]thiazol-4-yloxy)-N-((trans)-4-(3-methyl-2-oxoimidazolidin-1-yl)cyclohexyl)azetidine-1-carboxamide]	100 to 1000 nM
Cc1nnc(NC(=O)[C@H]2C[C@H](Oc3cccc4cccnc34)C2)s1 [Example 203, (trans)-N-(5-Methyl-1,3,4-thiadiazol-2-yl)-3-(quinolin-8-yloxy)cyclobutanecarboxamide]	10 to 79.4 nM
CS(=O)(=O)c1ccc(NC(=O)N2CC(Oc3cccc4scnc34)C2)cc1 [Example 306, 3-(Benzo[d]thiazol-4-yloxy)-N-(4-(methylsulfonyl)phenyl)azetidine-1-carboxamide]	10 to 79.4 nM
CC(C)(O)c1csc(NC(=O)[C@H]2C[C@H](Oc3cccc4scnc34)C2)n1 [Example 55, (trans)-3-(Benzo[d]thiazol-4-yloxy)-N-(4-(2-hydroxypropan-2-yl)thiazol-2-yl)cyclobutanecarboxamide]	10 to 79.4 nM
CC(N[C@H]1CC[C@H](NC(=O)[C@H]2C[C@H](Oc3cc(F)ccc3OC(F)F)C2)CC1)C(F)F (mixture of isomers) [Example 23, Racemic (trans)-3-(2-(Difluoromethoxy)-5-fluorophenoxy)-N-((trans)-4-((1,1-difluoropropan-2-yl)amino)cyclohexyl)cyclobutanecarboxamide]	10 to 79.4 nM
COc1cc(F)ccc1O[C@H]1C[C@H](C(=O)N[C@H]2CC[C@H](C(C)(C)O)CC2)C1 [Example 277, (trans)-3-(4-Fluoro-2-methoxyphenoxy)-N-((trans)-4-(2-hydroxypropan-2-yl)cyclohexyl)cyclobutanecarboxamide]	100 to 1000 nM
CC(C)(C)c1csc(NC(=O)[C@H]2C[C@H](Oc3cccc4cccnc34)C2)n1 [Example 211, (trans)-N-(4-(tert-Butyl)thiazol-2-yl)-3-(quinolin-8-yloxy)cyclobutanecarboxamide]	10 to 79.4 nM
O=C(NC1CN(CC(F)F)C1)[C@H]1C[C@H](Oc2cc(F)ccc2OC(F)F)C1 [Example 15, (trans)-N-(1-(2,2-Difluoroethyl)azetidin-3-yl)-3-(2-(difluoromethoxy)-5-fluorophenoxy)cyclobutanecarboxamide]	100 to 1000 nM
Cc1coc2c(O[C@H]3C[C@H](C(=O)N[C@H]4CC[C@H](C(C)(C)O)CC4)C3)cccc12 [Example 270, (trans)-N-((trans)-4-(2-Hydroxypropan-2-yl)cyclohexyl)-3-((3-methylbenzofuran-7-yl)oxy)cyclobutanecarboxamide]	100 to 1000 nM
CC(C)(O)Cc1cnc(NC(=O)[C@H]2C[C@H](Oc3cccc4cccnc34)C2)s1 [Example 213, (trans)-N-(5-(2-Hydroxy-2-methylpropyl)thiazol-2-yl)-3-(quinolin-8-yloxy)cyclobutanecarboxamide]	10 to 79.4 nM
CC(N[C@H]1CC[C@H](NC(=O)[C@H]2C[C@H](Oc3cc(F)cc4scnc34)C2)CC1)C(F)F (mixture of isomers) [Example 121, Racemic (trans)-N-((trans)-4-((1,1-Difluoropropan-2-yl)amino)cyclohexyl)-3-((6-fluorobenzo[d]thiazol-4-yl)oxy)cyclobutanecarboxamide]	10 to 79.4 nM
N#Cc1ccc(N2CC(NC(=O)[C@H]3C[C@H](Oc4cccc5scnc45)C3)C2)nc1 [Example 37, (trans)-3-(Benzo[d]thiazol-4-yloxy)-N-(1-(5-cyanopyridin-2-yl)azetidin-3-yl)cyclobutanecarboxamide]	10 to 79.4 nM
O=C(Nc1cc(C2CC2)n[nH]1)[C@H]1C[C@H](Oc2cccc3scnc23)C1 [Example 302, (trans)-3-(Benzo[d]thiazol-4-yloxy)-N-(3-cyclopropyl-1H-pyrazol-5-yl)cyclobutanecarboxamide]	10 to 79.4 nM
CC(=O)c1csc(NC(=O)[C@H]2C[C@H](Oc3cc(F)ccc3OC(F)F)C2)n1 [Example 35, (trans)-N-(4-Acetylthiazol-2-yl)-3-(2-(difluoromethoxy)-5-fluorophenoxy)cyclobutanecarboxamide]	< 10 nM
COc1ccc(F)cc1O[C@H]1C[C@H](C(=O)NN2CCc3ccccc32)C1 [Example 146, (trans)-3-(5-Fluoro-2-methoxyphenoxy)-N-(indolin-1-yl)cyclobutanecarboxamide]	10 to 79.4 nM
O=C(NC1CN(c2ccnc(Cl)n2)C1)[C@H]1C[C@H](Oc2cc(F)ccc2OC(F)F)C1 [Example 6, (trans)-N-(1-(2-Chloropyrimidin-4-yl)azetidin-3-yl)-3-(2-(difluoromethoxy)-5-fluorophenoxy)cyclobutanecarboxamide]	10 to 79.4 nM
O=C(Nc1ncc(CO)s1)[C@H]1C[C@H](Oc2cccc3cccnc23)C1 [Example 210, (trans)-N-(5-(Hydroxymethyl)thiazol-2-yl)-3-(quinolin-8-yloxy)cyclobutanecarboxamide]	10 to 79.4 nM
